Measurements from PMC4091765 (Methods in molecular biology (Clifton, N.J.), 2013).

Experiments:
PDE9A = PDE9A (Homo sapiens, UniProt O76083); assay: PDE assay using isothermal titration calorimetry; details: ITC; for Ki: compound as inhibitor of PDE9; for Km: compound as substrate
PDE8A = PDE8A (Homo sapiens, UniProt O60658); assay: PDE assay using isothermal titration calorimetry; details: ITC, compound as substrate; n.h. = not hydrolyzed
PDE5 = details: ITC, cited from earlier work
PDEs = assay: ITC PDE assays, summary over the PDE panel; details: result in words
PDE10 = details: ITC, compound as substrate; cited from earlier work
PDE2A = details: ITC, compound as substrate; cited from earlier work
PDE4D = details: ITC, compound as substrate; n.h. = not hydrolyzed; cited from earlier work
PDE6 = details: ITC, compound as substrate, cited from earlier work
PDE1C = details: ITC, compound as substrate; cited from earlier work
PDE1B = details: ITC, compound as substrate; cited from earlier work
PDE1A = details: ITC, compound as substrate; cited from earlier work

PDE9A, sequence (O76083 whole entry, species assumed): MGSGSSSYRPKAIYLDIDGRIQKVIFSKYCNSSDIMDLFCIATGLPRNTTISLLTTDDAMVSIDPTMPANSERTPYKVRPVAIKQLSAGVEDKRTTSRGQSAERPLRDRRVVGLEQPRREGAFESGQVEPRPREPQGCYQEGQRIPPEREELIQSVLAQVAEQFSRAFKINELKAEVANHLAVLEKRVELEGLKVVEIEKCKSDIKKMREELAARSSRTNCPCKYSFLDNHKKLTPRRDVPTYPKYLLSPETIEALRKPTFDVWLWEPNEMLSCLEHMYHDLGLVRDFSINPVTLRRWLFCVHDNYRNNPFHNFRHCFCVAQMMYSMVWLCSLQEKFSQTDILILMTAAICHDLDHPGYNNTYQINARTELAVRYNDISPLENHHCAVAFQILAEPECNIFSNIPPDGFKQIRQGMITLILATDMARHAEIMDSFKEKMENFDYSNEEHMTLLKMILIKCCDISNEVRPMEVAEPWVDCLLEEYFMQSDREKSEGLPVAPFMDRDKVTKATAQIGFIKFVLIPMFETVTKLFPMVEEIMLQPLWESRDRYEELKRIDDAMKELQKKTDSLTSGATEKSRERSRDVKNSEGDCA
PDE8A, sequence (O60658 whole entry, species assumed): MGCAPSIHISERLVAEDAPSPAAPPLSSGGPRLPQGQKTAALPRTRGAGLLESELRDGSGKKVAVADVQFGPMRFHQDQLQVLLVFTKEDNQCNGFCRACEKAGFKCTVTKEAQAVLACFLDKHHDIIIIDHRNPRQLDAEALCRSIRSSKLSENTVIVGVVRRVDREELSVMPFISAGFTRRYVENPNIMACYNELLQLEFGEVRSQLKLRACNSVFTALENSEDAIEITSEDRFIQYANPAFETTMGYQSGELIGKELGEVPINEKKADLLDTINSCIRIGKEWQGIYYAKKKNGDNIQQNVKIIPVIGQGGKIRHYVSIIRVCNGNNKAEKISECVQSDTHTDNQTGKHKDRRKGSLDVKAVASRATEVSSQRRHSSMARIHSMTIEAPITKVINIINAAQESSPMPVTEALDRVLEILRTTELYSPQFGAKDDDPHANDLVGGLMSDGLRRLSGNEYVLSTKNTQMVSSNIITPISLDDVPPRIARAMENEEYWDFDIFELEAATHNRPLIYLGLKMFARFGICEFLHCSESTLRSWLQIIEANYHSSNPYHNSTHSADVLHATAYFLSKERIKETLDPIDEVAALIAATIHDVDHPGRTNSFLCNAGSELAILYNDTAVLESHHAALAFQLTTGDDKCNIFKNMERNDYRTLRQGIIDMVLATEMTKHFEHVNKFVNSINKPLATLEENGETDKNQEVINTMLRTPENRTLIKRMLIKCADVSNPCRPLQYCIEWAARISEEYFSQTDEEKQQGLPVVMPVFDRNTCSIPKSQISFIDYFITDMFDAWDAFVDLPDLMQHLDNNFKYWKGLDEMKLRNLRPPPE

Nc1nc2c(nc(Sc3ccc(Cl)cc3)n2C2O[C@@H]3COP(=O)(O)O[C@H]3[C@H]2O)c(=O)[nH]1 (stereo in doubt) [8-pCPT-cGMP]
Ki (PDE9A): 1290 nM

Nc1nc2c(nc(Br)n2[C@@H]2O[C@@H]3COP(=O)(O)O[C@H]3[C@H]2O)c(=O)[nH]1 [8-Br-cGMP]
Ki (PDE9A): 770 nM | Km (PDE8A): 0.55 µM

CO[C@@H]1[C@@H]2OP(=O)(O)OC[C@H]2O[C@H]1n1c(Sc2ccc(Cl)cc2)nc2c(N)ncnc21 [8-pCPT-2-0-Me cAMP]
substrate property for PDE5 (PDE5; result in words): rather good substrate for PDE5

Nc1ncnc2c1nc(Br)n2[C@@H]1O[C@@H]2COP(=O)(O)O[C@H]2[C@H]1O [8Br-cAMP]
Km (PDE9A): 5.99 µM

COC1C2OP(O)(=S)OCC2OC1n1c(Sc2ccc(Cl)cc2)nc2c(N)ncnc21 (stereo not shown) [Sp-8-pCPT-2-0-Me-cAMPS]
substrate property for PDEs (PDEs; any PDE of the panel): not a substrate for any PDE | inhibition of PDEs (PDEs; several PDEs of the panel): quite a good inhibitor of several of them

Nc1nc2c(ncn2[C@@H]2O[C@@H]3COP(=O)(O)O[C@H]3[C@H]2O)c(=O)[nH]1 [cGMP]
Km (PDE10): 1.1 µM | Vmax (PDE10): 1.6 ± 0.11 µM/min/mg | Km (PDE9A): 0.2 µM | Km (PDE5; compound as substrate): 2 µM | Km (PDE2A): 31 µM | Vmax (PDE2A): 176 ± 31 µM/min/mg | Km (PDE4D): n.h. | Vmax (PDE4D): n.h. | Vmax (PDE6; Vmax normalized, cGMP as substrate = 1): 1.0 +/− 1.1 | Km (PDE6): 10 µM | Km (PDE1C): 4.6 µM | Vmax (PDE1C): 1.4 ± 1.0 µM/min/mg | Km (PDE1B): 5.4 µM | Vmax (PDE1B): 2.6 ± 0.7 µM/min/mg | Km (PDE1A): 8.2 µM | Vmax (PDE1A): 20 ± 1.0 µM/min/mg | Km (PDE8A): n.h. | Vmax (PDE8A): n.h.
